Where a name gives a salt, the structure may show the parent alone. Read-outs that look alike come from different tables or passages of the source.

The target of one experiment is T1, ETA (Oryctolagus cuniculus, UniProt A5A8K3).
T1 sequence (A5A8K3 21-427): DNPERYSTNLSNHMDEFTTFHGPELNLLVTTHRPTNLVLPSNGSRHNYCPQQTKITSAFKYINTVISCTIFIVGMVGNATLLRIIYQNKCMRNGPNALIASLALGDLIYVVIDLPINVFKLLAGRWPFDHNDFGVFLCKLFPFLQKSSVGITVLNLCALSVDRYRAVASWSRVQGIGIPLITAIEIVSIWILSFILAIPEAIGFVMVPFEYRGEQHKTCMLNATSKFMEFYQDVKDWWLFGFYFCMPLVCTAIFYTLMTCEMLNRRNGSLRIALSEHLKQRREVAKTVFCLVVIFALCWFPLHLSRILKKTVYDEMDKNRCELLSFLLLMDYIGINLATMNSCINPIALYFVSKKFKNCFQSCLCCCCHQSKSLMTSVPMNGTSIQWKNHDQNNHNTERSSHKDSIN

Another experiment addresses T2, human ETB receptor (Homo sapiens, UniProt P24530).
T2 construct: expressed in transfected cells; host or cells: CHO-K1 cells, pRc-CMW (so in the source) expression vector, electroporation; membranes used
T2 sequence (P24530 27-442): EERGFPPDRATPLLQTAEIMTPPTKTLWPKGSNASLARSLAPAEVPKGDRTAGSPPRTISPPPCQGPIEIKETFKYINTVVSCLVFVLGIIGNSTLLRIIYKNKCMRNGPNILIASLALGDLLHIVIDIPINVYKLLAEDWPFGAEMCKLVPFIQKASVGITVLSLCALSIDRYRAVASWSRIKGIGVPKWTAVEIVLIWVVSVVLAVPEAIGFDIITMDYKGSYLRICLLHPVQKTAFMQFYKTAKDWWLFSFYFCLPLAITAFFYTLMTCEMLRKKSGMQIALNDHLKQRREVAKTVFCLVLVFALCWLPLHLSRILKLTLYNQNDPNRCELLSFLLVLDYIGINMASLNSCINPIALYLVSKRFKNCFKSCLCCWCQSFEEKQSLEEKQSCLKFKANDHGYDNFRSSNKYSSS
As to the kind of experiment: ERBA-B: [125I]-ET-1 binding, recombinant human ETB receptor expressed in CHO-K1 cells. Particulars: human cloned ETB receptor, read-out: ERBA-B IC50, human cloned receptor data.

[1] abbreviates: ERBA-A IC50, [125I]-ET-1, rabbit renal artery vascular smooth muscle cells.

A word on the IC50: it is the point on the concentration scale where inhibition reaches its midpoint. As for `COc1ccc(C2(O)OC(=O)C(c3cc(OC)cc(OC)c3)=C2Cc2cccc(C(=O)O)c2)cc1` (stereo not shown) [Example 267, 3-[4-(3,5-Dimethoxyphenyl)-2-hydroxy-2-(4-methoxyphenyl)-5-oxo-2,5-dihydrof uran-3-ylmethyl]benzoic acid], the IC50 on ETA (setting [1]) was 0.71 µM; on human ETB receptor, over 2.5 µM.
For `CCC(CC)CC1=C(c2ccc3c(c2)OCO3)C(=O)OC1(O)c1ccc(OC)cc1` (stereo not shown) [Example 315, 3-Benzo[1,3]dioxol-5-yl-4-(2-ethyl-butyl)-5-hydroxy-5-(4-methoxy-phenyl)-5H -furan-2-one], in that order: 0.04 µM and 11.8 µM.
In the case of `CCOC(=O)COc1cc(CC2=C(c3ccc4c(c3)OCO4)C(=O)OC2(O)c2ccc(OC)cc2)cc(OC)c1OC` (stereo not shown) [Example 363, {5-[4-Benzo[1,3]dioxol-5-yl-2-hydroxy-2-(4-methoxyphenyl)-5-oxo-2,5-dihydro-furan-3-ylmethyl]-2,3-dimethoxy-phenoxy}-acetic acid ethyl ester], the IC50 is under 0.0025 µM on ETA (setting [1]) and 1.1 µM on human ETB receptor.
On to `COc1ccc(C2(O)OC(=O)C(c3ccc4c(c3)OCO4)=C2Cc2cc(C)c(OC)cc2C)cc1` (stereo not shown) [Example 251, 3-Benzo[1,3]dioxol-5-yl-5-hydroxy-4-(4-methoxy-2,5-dimethylbenzyl)-5-(4-methoxyphenyl)-5H-furan-2-one], for which the IC50 was 0.006 µM at ETA (setting [1]) and over 2.5 µM at human ETB receptor.
Regarding `COc1ccc(C2(O)OC(=O)C(c3cc(OC)cc(OC)c3)=C2Cc2cc(Cl)cc(Cl)c2)cc1` (stereo not shown) [Example 132, 4-(3,5-Dichlorobenzyl)-3-(3,5-dimethoxyphenyl)-5-hydroxy-5-(4-methoxyphenyl)-5H-furan-2-one], the 50% inhibitory concentration (IC50) against ETA (setting [1]) turned out to be 0.07 µM; on human ETB receptor, 2.75 µM.
For `CC(C)Oc1ccc(C2(O)OC(=O)C(c3ccc4c(c3)OCO4)=C2Cc2ccccc2)cc1` (stereo not shown) [Example 204, 3-Benzo[1,3]dioxol-5-yl-4-benzyl-5-hydroxy-5-(4-isopropoxyphenyl)-5H-furan-2-one], in that order: 1.05 µM and 10 µM.
As for `O=C1OC(O)(c2ccc3c(c2)OCO3)C(Cc2ccccc2)=C1c1ccc2c(c1)OCO2` (stereo not shown) [Example 245, 3,5-Bis-benzo[1,3]dioxol-5-yl-4-benzyl-5-hydroxy-5H-furan-2-one], the concentration for half-maximal inhibition (IC50) against ETA (setting [1]) came out at 0.11 µM; on human ETB receptor it was 2 µM.
As to `C=CCOc1cc(OC)ccc1CC1=C(c2ccc3c(c2)OCO3)C(=O)OC1(O)c1ccc(OC)cc1` (stereo not shown) [Example 343, 4(2-Allyloxy-4-methoxy-benzyl)-3-benzo[1,3]dioxol-5-yl-5-hydroxy-5-(4-methoxy-phenyl)-5H-furan-2-one], the values for the IC50 against ETA (setting [1]) and at human ETB receptor were 0.01 µM and 2.2 µM, respectively.
For `COc1ccc(C2(O)OC(=O)C(c3ccc4c(c3)OCO4)=C2Cc2cc(OC)c(OC)cc2OC)cc1` (stereo not shown) [Example 306, 3Benzo[1,3]dioxol-5-yl-5-hydroxy-5-(4-methoxy-phenyl)-4-(2,4,5-trimethoxy-benzyl)-5H-furan-2-one], in that order: 0.002 µM and 0.85 µM.
For `COc1ccc(C2(O)OC(=O)C(c3ccc4c(c3)OCO4)=C2Cc2ccc(OC)c(OC)c2)cc1` (stereo not shown) [Example 304, 3-Benzo[1,3]dioxol-5-yl-4-(3,4-dimethoxy-benzyl)-5-hydroxy-5-(4-methoxy-phenyl)-5H-furan-2-one], in that order: 0.0048 µM and 0.95 µM.
Consider `CCC1=C(c2ccc3c(c2)OCO3)C(=O)OC1(O)c1ccc(OC)cc1` (stereo not shown) [Example 91, 3-Benzo[1,3]dioxol-5-yl-4-ethyl-5-hydroxy-5-(4-methoxyphenyl)-5H-furan-2-on], for which the half-maximal inhibitory concentration (IC50) at ETA (setting [1]) is 0.53 µM; on human ETB receptor, 15 µM.
Take `CCCCCCCCOc1ccc(CC2=C(c3ccc4c(c3)OCO4)C(=O)OC2(O)c2ccc(OC)c(C)c2)cc1OC` (stereo not shown) [Example 394, 3-Benzo[1,3]dioxol-5-yl-5-hydroxy-5-(4-methoxy-3-methyl-phenyl)-4-(3-methoxy-4-octyloxy-benzyl)-5H-furan-2-one]: the 50% inhibitory concentration (IC50) at ETA (setting [1]) stood at 0.068 µM; at human ETB receptor, 0.42 µM.
With `COC(=O)Cc1cccc(CC2=C(c3ccc4c(c3)OCO4)C(=O)OC2(O)c2ccc(OC)cc2)c1` (stereo not shown) [Example 294, {3-[4-Benzo[1,3]dioxol-5-yl-2-hydroxy-2-(4-methoxyphenyl)-5-oxo-2,5-dihydro-furan-3-ylmethyl]-phenyl}-acetic acid methyl ester], the IC50 at ETA (setting [1]) is 0.0034 µM; at human ETB receptor, 0.78 µM.
`COc1ccc(C2(O)OC(=O)C(c3ccc4c(c3)OCO4)=C2CC2CCCCCC2)cc1` (stereo not shown) [Example 339, 3-Benzo[1,3]dioxol-5-yl-4-cycloheptylmethyl-5-hydroxy-5-(4-methoxy-phenyl)-5H-furan-2-one]: the concentration for half-maximal inhibition (IC50) was determined as 0.24 µM against ETA (setting [1]) and 1.3 µM on human ETB receptor.
For `O=C1OC(O)(c2cccc(Cl)c2)C(Cc2ccccc2)=C1c1ccc2c(c1)OCO2` (stereo not shown) [Example 235, 3-Benzo[1,3]dioxol-5-yl-4-benzyl-5-(3-chlorophenyl)-5-hydroxy-5H-furan-2-one], in that order: 0.67 µM and over 2.5 µM.
Consider `COc1cc(OC)cc(C2=C(Cc3ccc(NC(C)=O)cc3)C(O)(c3ccc(OC)c(C)c3)OC2=O)c1` (stereo not shown) [Example 385, N-{4-[4-(3,5-Dimethoxy-phenyl)-2-hydroxy-2-(4-methoxy-3-methyl-phenyl)-5-oxo-2,5-dihydro-furan-3-ylmethyl]-phenyl}-acetamide], for which the IC50 on ETA (setting [1]) turned out to be 0.0008 µM; at human ETB receptor, 0.69 µM.
For `COc1ccc(C2(O)OC(=O)C(c3ccc4c(c3)OCO4)=C2Cc2ccc(CC(=O)O)cc2)cc1` (stereo not shown) [Example 293, {4-[4-Benzo[1,3]dioxol-5-yl-2-hydroxyl-2-(4-methoxy-phenyl)-5-oxo-2,5-dihydro-furan-3-ylmethyl]-phenyl}-acetic acid], in that order: over 2.5 µM and over 2.5 µM.
Turning to `COc1ccc(C2(O)OC(=O)C(c3ccc4c(c3)OCO4)=C2Cc2ccc(OC(C)C)c(C)c2)cc1C` (stereo not shown) [Example 395, 3-Benzo[1,3]dioxol-5-yl-5-hydroxy-4-(4-isopropoxy-3-methyl-benzyl)-5-(4-methoxy-3-methyl-phenyl)-5H-furan-2-one], the concentration for half-maximal inhibition (IC50) at ETA (setting [1]) stood at 0.013 µM; at human ETB receptor, 0.84 µM.
`COc1ccc(C2(O)OC(=O)C(c3ccc4c(c3)OCO4)=C2CC2=CC[C@H]3C[C@@H]2C3(C)C)cc1` (stereo partly shown) [Example 310, 3-Benzo[1,3]dioxol-5-yl-4-(6,6-dimethyl-bicyclo[3.1.1]-hept-2-en-2-ylmethyl)-5-hydroxy-5-(4-methoxy-phenyl)-5H-furan-2-one]: the IC50 at ETA (setting [1]) stood at 0.54 µM; at human ETB receptor, 8.8 µM.
Taken in the same sequence, the figures for `COc1cc(OC)cc(/C(C(=O)O)=C(\Cc2c(OC)cc(OC)cc2OC)C(=O)c2ccc(OC)c(C)c2)c1` [Example 392] were 3.8 µM and 14 µM.
As for `COc1ccc(C2(O)OC(=O)C(c3ccc4c(c3)OCO4)=C2Cc2cc(OC)ccc2OC)cc1` (stereo not shown) [Example 307, 3-Benzo[1,3]dioxol-5-yl-4-(2,5-dimethoxy-benzyl)-5-hydroxy-5-(4-methoxy-phenyl)-5H-furan-2-one], the half-maximal inhibitory concentration (IC50) on ETA (setting [1]) amounted to 0.0059 µM; at human ETB receptor, 1 µM.
As for `COc1ccc(C2(O)OC(=O)C(c3cc(OC)cc(OC)c3)=C2Cc2ccc(Cl)cc2)cc1` (stereo not shown) [Example 274], the 50% inhibitory concentration (IC50) at ETA (read-out: ERBA-A IC50, [125I]-ET-1, rabbit renal artery vascular smooth muscle cells) was 0.14 µM; at human ETB receptor, over 2.5 µM.
Turning to `COc1ccc(C2(O)OC(=O)C(c3ccc4c(c3)OCO4)=C2Cc2cccnc2)cc1` (racemic) [Example 165, 2(5H)-Furanone, 3-(1,3-benzodioxol-5-yl)-5-hydroxy-5-(4-methoxyphenyl)-4-(3-pyridinylmethyl)-, (±)-, monohydrochloride], the results for the IC50 against ETA (setting [1]) and at human ETB receptor were 0.04 µM and 25 µM, respectively.
For `COc1ccc(C/C(C(=O)c2ccc(OC)cc2)=C(/C(=O)O)c2ccc3c(c2)OCO3)cc1` [Example 380, Sodium2-Benzo[1,3]dioxol-5-yl-3-(4-methoxy-benzyl)-4-(4-methoxy-phenyl)-4-o xo-but-2-enoate], in that order: 0.024 µM and 2 µM.
For `COc1ccc(C2(O)OC(=O)C(c3ccc4c(c3)OCO4)=C2Cc2cccc(CC(=O)O)c2)cc1` (stereo not shown) [Example 295, {3-[4-Benzo[1,3]dioxol-5-yl-2-hydroxy-2-(4-methoxyphenyl)-5-oxo-2,5-dihydro-furan-3-ylmethyl]-phenyl}-acetic acid], in that order: 0.13 µM and over 2.5 µM.
Taken in the same sequence, the figures for `COc1ccc(C2(O)OC(=O)C(c3ccc(OC)cc3OC)=C2Cc2ccccc2)cc1` (stereo not shown) [Example 113, 4-Benzyl-3-(2,4-dimethoxyphenyl)-5-hydroxy-5-(4-mehoxyphenyl)-5H-furan-2-one] were 0.3 µM and 25 µM.

The values are drawn from patent US5691373A, “Nonpeptide endothelin antagonists I” (Warner-Lambert Company, priority 1995, dated 1997).
